Data as given in ChEMBL document CHEMBL4229332, “Novel multi-target azinesulfonamides of cyclic amine derivatives as potential antipsychotics with pro-social and pro-cognitive effects” (Eur J Med Chem, 2018).
Calls of active or inactive are those of the source. The rule behind the calls is not given here.

What was measured:
[1] = Toxicity in ip dosed Sprague-Dawley rat assessed as sedation pretreated for 60 mins followed by PCP addition measured for 30 mins starting 15 min after rat reintroduction to auto-tracks; format: organism-based; conditions: in vivo
[2] = system: Rattus norvegicus; test: Effect on failure incidence during conditioned avoidance response test in Sprague-Dawley rat at 6 mg/kg, ip administered 60 mins prior to testing; format: ADME, organism-based; conditions: in vivo, 1 h
[3] = system: Rattus norvegicus; test: Reversal of ketamine-induced working social withdrawal in Sprague-Dawley rat at 1 mg/kg, ip pretreated for 60 mins followed by ketamine administration; format: functional, organism-based
[4] = species on record: Rattus norvegicus; test: animal or person; conditions: Sprague-Dawley, ip, read-out: MED
Description: Antipsychotic activity in ip dosed Sprague-Dawley rat assessed as reduction in PCP-induced hyper-locomotion pretreated for 60 mins followed by PCP addition measured for 30 mins starting 15 min after rat reintroduction to auto-tracks

[5] = species on record: Rattus norvegicus; test: animal or person; conditions: Sprague-Dawley, ip, read-out: MED; remark: listed apart in the source
Description: Reversal of PCP-induced cognitive impairment in ip dosed Sprague-Dawley rat assessed as reduction in time spent exploring novel object over familiar object pretreated for 60 mins followed by PCP addition by novel object recognition assay

[6] = species on record: Rattus norvegicus; test: animal or person; conditions: Sprague-Dawley, ip, read-out: MED; remark: listed apart in the source
Description: Antipsychotic activity in ip dosed Sprague-Dawley rat assessed as suppression of avoidance behavior by avoiding foot shock administered 60 mins prior to test by conditioned avoidance response test

[7] = system: Rattus norvegicus; test: Toxicity in Wistar rat assessed as increase in prolactin level at 3 mg/kg, po after 60 mins by ELISA; format: organism-based; conditions: in vivo, 1 h
[8] = Effect on failure incidence during conditioned avoidance response test in ip dosed Sprague-Dawley rat administered 60 mins prior to testing; format: ADME, organism-based; conditions: in vivo
[9] = system: Rattus norvegicus; test: Toxicity in Sprague-Dawley rat assessed as induction of catalepsy at 30 mg/kg, ip measured every 30 mins up to 240 mins by bar test; format: organism-based; conditions: in vivo
[10] = molecular target: 5-hydroxytryptamine receptor 6 (Homo sapiens, UniProt P50406); test: biochemical
Description: Displacement of [3H]-LSD from human 5-HT6R expressed in HEK293 cell membranes after 1 hr at 37 degC by microbeta counting method

[11] = molecular target: T1, 5-hydroxytryptamine receptor 1A (Homo sapiens, UniProt P08908); test: biochemical
T1 sequence (P08908 whole entry): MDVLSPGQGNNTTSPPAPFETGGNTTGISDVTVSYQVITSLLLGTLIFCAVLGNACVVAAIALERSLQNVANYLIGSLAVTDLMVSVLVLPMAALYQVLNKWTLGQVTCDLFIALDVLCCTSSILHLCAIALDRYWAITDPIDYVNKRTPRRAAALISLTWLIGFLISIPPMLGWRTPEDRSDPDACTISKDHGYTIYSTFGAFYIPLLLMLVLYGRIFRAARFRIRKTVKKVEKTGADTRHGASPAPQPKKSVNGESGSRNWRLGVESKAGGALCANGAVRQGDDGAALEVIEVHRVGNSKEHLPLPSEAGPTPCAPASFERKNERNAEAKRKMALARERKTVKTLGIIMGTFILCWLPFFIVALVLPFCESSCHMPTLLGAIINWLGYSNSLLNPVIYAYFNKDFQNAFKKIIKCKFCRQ
Description: Displacement of [3H]-8-OH-DPAT from human 5-HT1AR expressed in HEK293 cell membranes after 1 hr by microbeta counting method

[12] = molecular target: 5-hydroxytryptamine receptor 1D (Rattus norvegicus) (UniProt P28565); test: Antagonist activity at rat 5-HT1DR expressed in CHO cells assessed as inhibition of serotonin-induced response by cellular dielectric spectroscopy; format: functional, cell-based
[13] = system: Rattus norvegicus; test: Effect on failure incidence during conditioned avoidance response test in Sprague-Dawley rat at 0.3 mg/kg, ip administered 60 mins prior to testing; format: ADME, organism-based; conditions: in vivo, 1 h
[14] = species on record: Rattus norvegicus; test: animal or person; conditions: Sprague-Dawley, ip, read-out: MED; remark: listed apart in the source
Description: Reversal of ketamine-induced working social withdrawal in ip dosed Sprague-Dawley rat pretreated for 60 mins followed by ketamine administration

[15] = (§1) Toxicity in ip dosed Sprague-Dawley rat assessed as induction of catalepsy measured every 30 mins up to 240 mins by bar test; format: organism-based; conditions: Sprague-Dawley, in vivo
[16] = system: Rattus norvegicus; test: as §1; format: organism-based; conditions: in vivo
[17] = system: Rattus norvegicus; test: Reversal of ketamine-induced working social withdrawal in Sprague-Dawley rat at 0.1 mg/kg, ip pretreated for 60 mins followed by ketamine administration; format: functional, organism-based
[18] = system: Rattus norvegicus; test: Reversal of PCP-induced cognitive impairment in Sprague-Dawley rat assessed as […] in time spent exploring novel object over familiar object at 0.05 mg/kg, ip pretreated for 60 mins followed by PCP addition by novel object recognition assay; format: functional, organism-based

Chain of 5-hydroxytryptamine receptor 1D (Rattus norvegicus) (P28565 whole entry): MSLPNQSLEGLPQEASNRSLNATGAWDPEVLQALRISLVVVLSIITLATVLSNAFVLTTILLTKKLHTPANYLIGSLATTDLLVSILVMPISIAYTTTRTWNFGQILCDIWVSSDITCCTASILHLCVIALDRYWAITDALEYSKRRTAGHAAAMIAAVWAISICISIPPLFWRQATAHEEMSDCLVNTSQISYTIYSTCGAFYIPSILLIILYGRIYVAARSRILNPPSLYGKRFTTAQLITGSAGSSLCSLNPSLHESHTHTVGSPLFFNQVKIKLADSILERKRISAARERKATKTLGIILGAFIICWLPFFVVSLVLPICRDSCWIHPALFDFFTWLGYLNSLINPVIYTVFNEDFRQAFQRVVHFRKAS
Chain of 5-hydroxytryptamine receptor 6 (P50406 whole entry): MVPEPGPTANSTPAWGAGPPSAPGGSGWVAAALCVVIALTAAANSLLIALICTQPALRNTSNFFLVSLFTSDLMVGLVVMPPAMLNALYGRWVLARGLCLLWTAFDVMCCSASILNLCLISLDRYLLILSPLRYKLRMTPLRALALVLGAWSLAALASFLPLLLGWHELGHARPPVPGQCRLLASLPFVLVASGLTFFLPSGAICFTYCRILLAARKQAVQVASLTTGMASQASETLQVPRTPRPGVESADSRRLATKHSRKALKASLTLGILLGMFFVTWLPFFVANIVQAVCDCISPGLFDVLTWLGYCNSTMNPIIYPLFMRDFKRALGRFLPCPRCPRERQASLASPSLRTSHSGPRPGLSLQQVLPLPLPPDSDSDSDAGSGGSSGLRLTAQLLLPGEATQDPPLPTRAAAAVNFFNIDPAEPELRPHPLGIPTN

| SMILES | MTD at 0.5 h [1] | Activity [3] | minimal effective dose [4] | minimal effective dose [5] | minimal effective dose [6] | MTD at 1 h [8] | further results |
| --- | --- | --- | --- | --- | --- | --- | --- |
| CN1CCN(C2=Nc3cc(Cl)ccc3Nc3ccccc32)CC1 [CLOZAPINE] | 3 mg/kg | inactive | 1 mg/kg | 1 mg/kg | 1 mg/kg | – | Activity [2]: Non-Toxic |
| O=C1Cc2cc(CCN3CCN(c4nsc5ccccc45)CC3)c(Cl)cc2N1 [ZIPRASIDONE] | 3 mg/kg | inactive | 1 mg/kg | 1 mg/kg | 1 mg/kg | 2 mg/kg | Activity [7]: Toxic; Activity [9]: Non-Toxic; Ki [10]: 20 nM; Ki [11]: 2 nM |
| CSc1ccc2c(c1)C(N1CCN(C)CC1)Cc1ccccc1S2 (stereo not drawn) | – | – | – | – | – | – | Kb [12]: 14 nM |
| Cc1nc2n(c(=O)c1CCN1CCC(c3noc4cc(F)ccc34)CC1)CCCC2 [RISPERIDONE] | – | – | – | – | 0.1 mg/kg | – | Activity [13]: Non-Toxic; minimal effective dose [14]: 0.1 mg/kg |
| O=C(CCCN1CCC(O)(c2ccc(Cl)cc2)CC1)c1ccc(F)cc1 [HALOPERIDOL] | 0.06 mg/kg | – | 0.6 mg/kg | – | 0.1 mg/kg | 0.2 mg/kg | MTD [15]: 0.2 mg/kg; Activity [16]: Dose-dependent effect; Activity [17]: inactive; Activity [18]: inactive |
